Assay results from the NIST ThermoML archive (doi:10.1021/acs.jced.8b00975).

Test: xn = mol fraction of the nth substance listed
Settings: Liquid, Vibrating tube method

C=C(C)C(=O)OCCN(C)C [2-(dimethylamino)ethyl methylpropenoate] + CO
mass density [kg/m3]
Settings | 100 kPa | 5000 kPa | 10000 kPa | 15000 kPa | 30000 kPa | 35000 kPa
293.15 K, x1 = 0.0227 | – | – | – | – | 831.04 | 834.64
293.15 K, x1 = 0.0807 | – | – | – | – | 860.86 | 864.36
293.15 K, x1 = 0.1196 | – | – | – | – | 875.62 | 878.97
293.15 K, x1 = 0.2003 | – | – | – | – | 898.5 | 901.87
293.15 K, x1 = 0.3189 | – | – | – | – | 919.46 | 922.7
293.15 K, x1 = 0.4003 | – | – | – | – | 928.92 | 932.12
293.15 K, x1 = 0.4502 | – | – | – | – | 933.44 | 936.53
293.15 K, x1 = 0.4914 | – | – | – | – | 936.47 | 939.66
293.15 K, x1 = 0.5451 | – | – | – | – | 939.88 | 943.07
293.15 K, x1 = 0.6446 | – | – | – | – | 944.62 | 947.8
293.15 K, x1 = 0.6899 | – | – | – | – | 946.23 | 949.4
293.15 K, x1 = 0.8265 | – | – | – | – | 950.41 | 953.56
293.15 K, x1 = 0.8957 | – | – | – | – | 951.92 | 955.03
293.15 K, x1 = 0.9213 | – | – | – | – | 952.32 | 955.5
293.15 K, x1 = 0.977 | – | – | – | – | 953.08 | 956.32
303.15 K, x1 = 0.0301 | 802.01 | 806.85 | 811.37 | 815.62 | – | –
303.15 K, x1 = 0.0604 | 818.68 | 823.37 | 827.77 | 831.91 | – | –
303.15 K, x1 = 0.1003 | 836.41 | 840.87 | 845.1 | 849.12 | – | –
303.15 K, x1 = 0.1894 | 864.5 | 868.73 | 872.74 | 876.58 | – | –
303.15 K, x1 = 0.3009 | 886 | 890.03 | 893.92 | 897.69 | – | –
303.15 K, x1 = 0.4011 | 898.17 | 902.15 | 905.98 | 909.67 | – | –
303.15 K, x1 = 0.4497 | 902.64 | 906.61 | 910.42 | 914.09 | – | –
303.15 K, x1 = 0.5004 | 906.39 | 910.32 | 914.1 | 917.76 | – | –
303.15 K, x1 = 0.5484 | 909.57 | 913.52 | 917.31 | 920.96 | – | –
303.15 K, x1 = 0.6026 | 912.38 | 916.33 | 920.1 | 923.74 | – | –
303.15 K, x1 = 0.701 | 916.45 | 920.39 | 924.17 | 927.81 | – | –
303.15 K, x1 = 0.7881 | 919.15 | 923.04 | 926.8 | 930.44 | – | –
303.15 K, x1 = 0.897 | 921.41 | 925.26 | 929.01 | 932.67 | – | –
303.15 K, x1 = 0.9286 | 922.08 | 926.03 | 929.81 | 933.47 | – | –
303.15 K, x1 = 0.961 | 922.67 | 926.57 | 930.33 | 933.98 | – | –
